From ChEMBL document CHEMBL1153028, “QSAR study on maximal inhibition (Imax) of quaternary ammonium antagonists for S-(-)-nicotine-evoked dopamine release from dopaminergic nerve terminals in rat striatum” (Bioorg Med Chem, 2009)
Numbered stars: 1 amine (or outer) side, 2 acyl side, 3 side chain; on linkers, the order of the positions; unused ones are H or OH. Bridge positions count the residues as written; N and C are the ends. Peptide text beside a SMILES is read from it. X1 = NC(=O)[C@@H](CN[*:2])CS[*:1]

test system: not listed separately; assay: Antagonist activity at nAChR in Sprague-Dawley rat striatal slices assessed as inhibition of S(-)-nicotine-evoked [3H]dopamine overflow at 100 uM by liquid scintillation counting; format: functional

| SMILES | Imax [%] |
| --- | --- |
| [Br-].[Br-].c1ccc2c(c1)ccc[n+]2CCCCCCCCCCCC[n+]1cccc2ccccc21 | 52 |
| CCCCCCCCCCCC[n+]1cccc(C)c1.[I-] | 63 |
| [I-].[I-].c1ccc2c(c1)ccc[n+]2CCCCCCCC[n+]1cccc2ccccc21 | 71 |
| CCCC[n+]1ccccc1.[I-] | 2 |
| CCCCC#CCC[n+]1cccc([C@@H]2CCCN2C)c1.[Br-] | 47 |
| Cc1ccc[n+](CCCCCCC[n+]2cccc(C)c2)c1.[Br-].[Br-] | 54 |
| CCCCCCCCCCCC[n+]1cccc2c1CC[C@@H]1CCN(C)[C@H]21.[I-] | 25 |
| CCC[n+]1ccccc1.[I-] | 22 |
| [Br-].[Br-].c1ccc2c[n+](CCCCCCCCCCC[n+]3ccc4ccccc4c3)ccc2c1 | 55 |
| C=CCCCCCCCC[n+]1cccc([C@@H]2CCCN2C)c1.[Br-] | 72 |
| [I-].[I-].c1cc[n+](CCCCCCCC[n+]2ccccc2)cc1 | 0 |
| CCCCCCCC[n+]1cccc([C@@H]2CCCN2C)c1.[I-] | 88 |
| CCCCCCCCCCCC[n+]1ccc2c(c1)[C@H]1[C@@H](CC2)CCN1C.[I-] | 62 |
| CN(C)C1CCCc2ncccc21.Cl (configuration not stated) | 53 |
| CCCC/C=C\CC[n+]1cccc([C@@H]2CCCN2C)c1.[Br-] | 83 |
| [I-].[I-].c1ccc2c(c1)ccc[n+]2CCCCCC[n+]1cccc2ccccc21 | 55 |
| CCCCCCCCC[n+]1cccc2c1CC[C@@H]1CCN(C)[C@H]21.[I-] | 86 |
| Cl.NC1CCCc2ccncc21 (configuration not stated) | 56 |
| [Br-].[Br-].c1ccc2c(c1)ccc[n+]2CCCCCCCCC[n+]1cccc2ccccc21 | 58 |
| CCCCC/C=C/CCC[n+]1cccc([C@@H]2CCCN2C)c1.[Br-] | 85 |
| CCCCCCCCCC[n+]1ccc2c(c1)[C@H]1[C@@H](CC2)CCN1C.[I-] | 67 |
| Cc1ccc[n+](CCCCCCCCCCC[n+]2cccc(C)c2)c1.[Br-].[Br-] | 68 |
| CCC[n+]1cccc([C@@H]2CCCN2C)c1.[I-] | 58 |
| CN1CCC[C@H]1c1ccc[n+](C)c1.[I-] | 0 |

| SMILES | Imax [%] |
| --- | --- |
| CN1CCC[C@@H]1c1ccc[n+](CCCCCCCCCCCC[n+]2cccc([C@@H]3CCCN3C)c2)c1.[Br-].[Br-] | 38 |
| CCCCCCCCCCCCCCCCCCCC[n+]1ccccc1.[Br-] | 60 |
| CNC1CCCc2ncccc21.Cl (configuration not stated) | 87 |
| Cl.NC1CCCc2ncccc21 (configuration not stated) | 69 |
| CCCCCC[n+]1cccc([C@@H]2CCCN2C)c1.[I-] | 80 |
| CCCCCCC[n+]1cccc([C@@H]2CCCN2C)c1.[I-] | 75 |
| [I-].[I-].c1cc[n+](CCCCCCCCCC[n+]2ccccc2)cc1 | 27 |
| CCCCCC[n+]1ccccc1.[I-] | 21 |
| CN(C)C1CCCc2ccncc21.Cl (configuration not stated) | 68 |
| CNC1CCCc2ccncc21.Cl (configuration not stated) | 57 |
| CCCC[n+]1cccc([C@@H]2CCCN2C)c1.[I-] | 80 |
| CCCCCCCCCC[n+]1cccc2c1CC[C@@H]1CCN(C)[C@H]21.[I-] | 93 |
| [I-].[I-].c1ccc2c[n+](CCCCCCCC[n+]3ccc4ccccc4c3)ccc2c1 | 74 |
| CCCCCCCC[n+]1cccc2c1CC[C@@H]1CCN(C)[C@H]21.[I-] | 88 |
| CCCCCCCC[n+]1ccc2c(c1)[C@H]1[C@@H](CC2)CCN1C.[I-] | 60 |
| [I-].[I-].c1ccc2c(c1)ccc[n+]2CCCCCCCCCC[n+]1cccc2ccccc21 | 76 |
| CNC1(C)C2CCC(C2)C1(C)C (configuration not stated) [MECAMYLAMINE] | 91 |
| Cc1ccc[n+](CCCCCCCCCCCC[n+]2cccc(C)c2)c1.[Br-].[Br-] | 78 |
| [Br-].[Br-].c1ccc2c[n+](CCCCCCCCC[n+]3ccc4ccccc4c3)ccc2c1 | 0 |
| CCCC/C=C/CC[n+]1cccc([C@@H]2CCCN2C)c1.[Br-] | 79 |
| CCCCCCC#CCC[n+]1cccc([C@@H]2CCCN2C)c1.[Br-] | 29 |
| [Br-].[Br-].c1cc[n+](CCCCCCCCCCCC[n+]2ccccc2)cc1 | 91 |
| CCCCCCCCCC[n+]1cccc(C)c1.[I-] | 73 |
| Cc1ccc[n+](CCCCCCCCCC[n+]2cccc(C)c2)c1.[I-].[I-] | 63 |

| SMILES | Imax [%] |
| --- | --- |
| CCCCCCCC[n+]1ccccc1.[I-] | 0 |
| CCCCCCCCCCC[n+]1ccc2c(c1)[C@H]1[C@@H](CC2)CCN1C.[I-] | 72 |
| Cc1ccc[n+](CCCCCCCCC[n+]2cccc(C)c2)c1.[Br-].[Br-] | 63 |
| C=CC[n+]1cccc([C@@H]2CCCN2C)c1.[I-] | 0 |
| C[n+]1ccccc1.[I-] | 0 |
| CN1CCC[C@H]1c1ccc[n+](Cc2ccccc2)c1.[Br-] | 0 |
| CCCCCCCCCCC[n+]1cccc2c1CC[C@@H]1CCN(C)[C@H]21.[I-] | 79 |
| [Br-].[Br-].c1ccc2c[n+](CCCCCCCCCCCC[n+]3ccc4ccccc4c3)ccc2c1 | 53 |
| [I-].[I-].c1cc[n+](CCCCC[n+]2ccccc2)cc1 | 0 |
| CCCCCCCCCCCCCCC[n+]1ccccc1.[I-] | 58 |
| CCCCCCCCC[n+]1ccc2c(c1)[C@H]1[C@@H](CC2)CCN1C.[I-] | 56 |
| CCCCCCCCCCCC[n+]1cccc([C@@H]2CCCN2C)c1.[I-] | 95 |
| [I-].[I-].c1ccc2c[n+](CCCCCCCCCC[n+]3ccc4ccccc4c3)ccc2c1 | 65 |
| CCCCCCCCC[n+]1cccc([C@@H]2CCCN2C)c1.[I-] | 100 |
| CC[n+]1ccccc1.[I-] | 0 |
| [I-].[I-].c1ccc2c[n+](CCCCCC[n+]3ccc4ccccc4c3)ccc2c1 | 47 |
| CCCCC[n+]1ccccc1.[I-] | 44 |
| Cc1ccc[n+](CCCCCCCC[n+]2cccc(C)c2)c1.[I-].[I-] | 53 |
| C=CCCCCCCCCC[n+]1cccc([C@@H]2CCCN2C)c1.[Br-] | 87 |
| [Br-].[Br-].c1cc[n+](CCCCCCCCC[n+]2ccccc2)cc1 | 28 |
| C=CCCCCCC[n+]1cccc([C@@H]2CCCN2C)c1.[Br-] | 87 |
| Cc1ccc[n+](CCCCCC[n+]2cccc(C)c2)c1.[I-].[I-] | 7 |
| CCCCCCC[n+]1ccccc1.[I-] | 0 |

target: Neuronal acetylcholine receptor subunit alpha-6 (Mus musculus) (UniProt Q9R0W9); assay: Displacement of [3H]epibatidine from nAChRalpha6 in mouse brain by autoradiography; format: tissue-based
Sequence (Q9R0W9 whole entry): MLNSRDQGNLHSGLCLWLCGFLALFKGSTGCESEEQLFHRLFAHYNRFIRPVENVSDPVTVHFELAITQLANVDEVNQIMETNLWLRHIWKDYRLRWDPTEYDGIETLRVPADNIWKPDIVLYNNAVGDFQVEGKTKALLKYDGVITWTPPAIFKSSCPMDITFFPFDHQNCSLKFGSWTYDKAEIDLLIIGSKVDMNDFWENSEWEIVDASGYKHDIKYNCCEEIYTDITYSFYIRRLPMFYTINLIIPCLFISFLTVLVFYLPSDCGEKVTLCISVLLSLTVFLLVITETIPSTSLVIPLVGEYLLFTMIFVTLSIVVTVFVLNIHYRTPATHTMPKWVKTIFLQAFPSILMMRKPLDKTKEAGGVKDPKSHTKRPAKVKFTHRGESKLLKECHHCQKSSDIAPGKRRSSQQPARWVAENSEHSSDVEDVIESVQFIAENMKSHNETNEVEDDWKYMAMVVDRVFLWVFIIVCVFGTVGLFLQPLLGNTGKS

| SMILES | Imax [%] |
| --- | --- |
| CC(C)C[C@@H]1NC(=O)[C@H](CC(N)=O)NC(=O)[C@H](CO)NC(=O)[C@H](Cc2cnc[nH]2)NC(=O)[C@H](CCC(=O)O)NC(=O)[C@H](CC(C)C)NC(=O)[C@H](Cc2cnc[nH]2)NC(=O)[C@@H]2CSSC[C@H](NC(=O)CN)C(=O)N[C@@H](CSSC[C@@H](C(N)=O)CNC1=O)C(=O)N[C@@H](CO)C(=O)N[C@@H](CC(N)=O)C(=O)N1CCC[C@H]1C(=O)N[C@@H](C(C)C)C(=O)N2 (H-GCCSNPVCHLEHSNL; disulfide 2-8; linker 3-C via X1) | 62 |
